Data on 17 compounds can be found in ChEMBL document CHEMBL1147715, “Gatifloxacin derivatives: synthesis, antimycobacterial activities, and inhibition of Mycobacterium tuberculosis DNA gyrase” (Bioorg Med Chem Lett, 2006).

For one assay, the system named is Vero. The assay can be described thus: Cytotoxicity against Vero cell line at 62.5 ug/ml after 72 hrs. The format is functional, cell-based. Particulars: Chlorocebus sabaeus.
Assay [1] concerns Mycobacterium tuberculosis. The assay can be described thus: Antimycobacterial activity against Mycobacterium tuberculosis H37Rv. The class given is functional.
Assay [2] is described as follows: Inhibition of Mycobacterium tuberculosis DNA gyrase.
In assay [3] the test system is Mycobacterium tuberculosis. Briefly: Activity against Mycobacterium tuberculosis ATCC 35801 in CD1 mouse at 50 mg/kg assessed as decrease in bacterial load in lung relative to control. The class given is functional.
The subject of assay [4] is Mycobacterium tuberculosis. Briefly: Activity against Mycobacterium tuberculosis ATCC 35801 in CD1 mouse at 50 mg/kg assessed as decrease in bacterial load in spleen relative to control. The format is functional.
Assay [5] deals with Mycobacterium tuberculosis. The assay can be described thus: Selectivity index (IC50/MIC). The class given is functional.

Values after ≈ are worked out from the molar mass of the structure shown. Bounds are passed on as bounds.

Broadly, the MIC is the smallest concentration in the dilution series that meets the test's criterion for growth inhibition. Lower therefore signals a more susceptible organism. The term IC50 denotes the point on the concentration scale where inhibition reaches its midpoint. Turning to `COc1c(N2CCN(Cn3c(O)c(/N=N/C(=N)S)c4ccccc43)C(C)C2)c(F)cc2c(=O)c(C(=O)O)cn(C3CC3)c12` (centres undefined), the Activity result with Vero was “Not toxic”. Moreover, in assay [1], the MIC came out at 0.2 µg/mL (≈ 0.329 µM). The same compound showed an IC50 in assay [2] of 5 µg/mL (≈ 8.23 µM).
Consider `COc1c(N2CCN(CN3C(=O)/C(=N\c4ccc(S(=O)(=O)Nc5ncccn5)cc4)c4cc(C)ccc43)C(C)C2)c(F)cc2c(=O)c(C(=O)O)cn(C3CC3)c12` (centres undefined), for which the Activity result in the assay on Vero was “Not toxic”. Further, in assay [1], it took 0.1 µg/mL (≈ 0.128 µM) to inhibit growth (MIC). For the same compound, in assay [2], the IC50 was found to be 3 µg/mL (≈ 3.84 µM).
With `COc1c(N2CCN(Cn3c(O)c(/N=N/C(=N)S)c4cc(F)ccc43)C(C)C2)c(F)cc2c(=O)c(C(=O)O)cn(C3CC3)c12` (centres undefined), the Activity result with Vero is “Not toxic”. This compound displayed an MIC in assay [1] of 0.1 µg/mL (≈ 0.16 µM). The IC50 in assay [2] was 8 µg/mL (≈ 12.8 µM).
Taken in the same sequence, the figures for `COc1c(N2CCN(Cn3c(O)c(/N=N/C(=O)c4ccncc4)c4cc(C)ccc43)C(C)C2)c(F)cc2c(=O)c(C(=O)O)cn(C3CC3)c12` (centres undefined) were “Not toxic”, 0.78 µg/mL (≈ 1.17 µM) and 5.5 µg/mL (≈ 8.24 µM).
Take `COc1c(N2CCN(Cn3c(O)c(/N=N/C(N)=O)c4cc(F)ccc43)C(C)C2)c(F)cc2c(=O)c(C(=O)O)cn(C3CC3)c12` (centres undefined): the Activity entry in the assay on Vero is “Not toxic”. In assay [1], this compound displayed an MIC of 0.2 µg/mL (≈ 0.328 µM). Moreover, the IC50 in assay [2] stood at 4 µg/mL (≈ 6.56 µM).
The corresponding values for `COc1c(N2CCN(Cn3c(O)c(/N=N/C(=O)c4ccncc4)c4cc(Cl)ccc43)C(C)C2)c(F)cc2c(=O)c(C(=O)O)cn(C3CC3)c12` (centres undefined) are “Not toxic”, 0.39 µg/mL (≈ 0.567 µM) and 5 µg/mL (≈ 7.27 µM).
For `COc1c(N2CCN(Cn3c(O)c(/N=N/C(N)=O)c4ccccc43)C(C)C2)c(F)cc2c(=O)c(C(=O)O)cn(C3CC3)c12` (centres undefined), the Log10 cfu in assay [3] is on record as 4.26; in assay [4], 5.08. Moreover, in the assay on Vero, the Activity result was “Not toxic”. The compound also registered an MIC in assay [1] of 0.0125 µg/mL (≈ 0.0211 µM). The Selectivity index in assay [5] was more than 1250. Besides, in assay [2], the IC50 was determined as 3 µg/mL (≈ 5.07 µM).
As to `COc1c(N2CCN(CN3C(=O)/C(=N\c4ccc(S(=O)(=O)Nc5ncccn5)cc4)c4cc(Cl)ccc43)C(C)C2)c(F)cc2c(=O)c(C(=O)O)cn(C3CC3)c12` (centres undefined), the Activity result in the assay on Vero is “Not toxic”. In assay [1], this compound came in with an MIC of 0.1 µg/mL (≈ 0.125 µM). Besides, the IC50 in assay [2] amounted to 6 µg/mL (≈ 7.49 µM).
As to `COc1c(N2CCN(Cn3c(O)c(/N=N/C(=O)c4ccncc4)c4cc(F)ccc43)C(C)C2)c(F)cc2c(=O)c(C(=O)O)cn(C3CC3)c12` (centres undefined), the Activity entry in the assay with Vero is “Not toxic”. Besides, it took 0.78 µg/mL (≈ 1.16 µM) to inhibit growth in assay [1] (MIC).
For `COc1c(N2CCN(CN3C(=O)/C(=N\c4ccc(S(=O)(=O)Nc5ncccn5)cc4)c4cc(F)ccc43)C(C)C2)c(F)cc2c(=O)c(C(=O)O)cn(C3CC3)c12` (centres undefined), in the assay on Vero, the Activity result is “Not toxic”. For the same compound, the MIC in assay [1] worked out at 0.2 µg/mL (≈ 0.255 µM). For the same compound, in assay [2], the IC50 was determined as 6 µg/mL (≈ 7.65 µM).
Consider `COc1c(N2CCN(Cn3c(O)c(/N=N/C(=O)c4ccncc4)c4ccccc43)C(C)C2)c(F)cc2c(=O)c(C(=O)O)cn(C3CC3)c12` (centres undefined), for which the Activity entry with Vero is “Not toxic”. In assay [1], this compound displayed an MIC of 0.78 µg/mL (≈ 1.19 µM). The compound further came in with an IC50 in assay [2] of 4 µg/mL (≈ 6.12 µM).
Regarding `COc1c(N2CCN(Cn3c(O)c(/N=N/C(N)=O)c4cc(Cl)ccc43)C(C)C2)c(F)cc2c(=O)c(C(=O)O)cn(C3CC3)c12` (centres undefined), the Activity entry in the assay with Vero was “Not toxic”. Moreover, the MIC in assay [1] is 0.39 µg/mL (≈ 0.623 µM). The half-inhibitory concentration (IC50) in assay [2] worked out at 4 µg/mL (≈ 6.39 µM).
For `COc1c(N2CCN(CN3C(=O)/C(=N\c4ccc(S(=O)(=O)Nc5ncccn5)cc4)c4ccccc43)C(C)C2)c(F)cc2c(=O)c(C(=O)O)cn(C3CC3)c12` (centres undefined), the Activity result with Vero is “Not toxic”. Also, the MIC in assay [1] is 0.2 µg/mL (≈ 0.261 µM). Also, the IC50 in assay [2] is 8 µg/mL (≈ 10.4 µM).
`COc1c(N2CCNC(C)C2)c(F)cc2c(=O)c(C(=O)O)cn(C3CC3)c12` (centres undefined) [GATIFLOXACIN]: the Log10 cfu in assay [3] was found to be 5.82; in assay [4], 6.14. Also, inhibition of growth in assay [1] (MIC) required 0.2 µg/mL (≈ 0.533 µM). Further, the IC50 in assay [2] is 4 µg/mL (≈ 10.7 µM).
As for `COc1c(N2CCN(Cn3c(O)c(/N=N/C(N)=O)c4cc(C)ccc43)C(C)C2)c(F)cc2c(=O)c(C(=O)O)cn(C3CC3)c12` (centres undefined), the Activity result with Vero was “Not toxic”. It took 0.39 µg/mL (≈ 0.644 µM) to inhibit growth in assay [1] (MIC). The IC50 in assay [2] is 4.5 µg/mL (≈ 7.43 µM).
Regarding `COc1c(N2CCN(Cn3c(O)c(/N=N/C(=N)S)c4cc(Cl)ccc43)C(C)C2)c(F)cc2c(=O)c(C(=O)O)cn(C3CC3)c12` (centres undefined), the Activity entry in the assay on Vero was “Not toxic”. In addition, in assay [1], the lowest concentration to inhibit growth (MIC) was 0.39 µg/mL (≈ 0.607 µM). The compound further had an IC50 in assay [2] of 4 µg/mL (≈ 6.23 µM).
Taken in the same sequence, the figures for `COc1c(N2CCN(Cn3c(O)c(/N=N/C(=N)S)c4cc(C)ccc43)C(C)C2)c(F)cc2c(=O)c(C(=O)O)cn(C3CC3)c12` (centres undefined) were “Not toxic”, 0.78 µg/mL (≈ 1.25 µM) and 10 µg/mL (≈ 16.1 µM).
